Assay results as given in the supplement of paper PMC13207355.

Key:
Conditions in all cases: exposure time: 72 h
E13 [1] = patient-derived glioblastoma stem cells of classical subtype; assay: phenotypic distance (Euclidean, principal components) from DMSO controls (arbitrary units); higher = stronger morphological change
E21 [2] = patient-derived glioblastoma stem cells of mesenchymal subtype; assay: as above
E28 [3] = patient-derived glioblastoma stem cells of classical subtype; assay: as above
E31 [4] = patient-derived glioblastoma stem cells of proneural subtype; assay: as above
E34 [5] = patient-derived glioblastoma stem cells of proneural subtype; assay: as above
FT3469 [6] = normal neural stem cell line; assay: as above
E57 [7] = patient-derived glioblastoma stem cells of mesenchymal subtype; assay: as above
E13 [8] = assay: surviving fraction (nuclei count normalised to DMSO); higher = more cells surviving (less toxic)
E21 [9] = assay: as above
E28 [10] = assay: as above
E31 [11] = assay: as above
E34 [12] = assay: as above
FT3469 [13] = assay: as above
E57 [14] = assay: as above
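Wherever phenotypic distance (Euclidean, principal components) from DMSO controls is given: cell Painting imaging in 384-well plates, CellProfiler features reduced to at least 20 principal components, Euclidean distance versus same-plate DMSO vehicle wells (0.1% v/v), median over six images per well.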
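Wherever surviving fraction (nuclei count normalised to DMSO) is given: nuclei counted by high-content imaging of Hoechst-stained cells in laminin-coated 384-well plates, relative to 0.1% DMSO vehicle wells, with staurosporine as cell-death control.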

Nc1nc(=O)c2nc(CNc3ccc(C(=O)N[C@@H](CCC(=O)O)C(=O)O)cc3)cnc2[nH]1 [Folic acid]
Conditions | phenotypic distance | surviving fraction
E13 [1], 4.1 nM | 0.778 | –
E13 [1], 12.3 nM | 0.355 | –
E13 [1], 37 nM | 0.501 | –
E13 [1], 111.1 nM | 0.396 | –
E13 [1], 333.3 nM | 0.695 | –
E13 [1], 1000 nM | 0.593 | –
E13 [1], 3000 nM | 0.805 | –
E13 [8], 4.1 nM | – | 0.982
E13 [8], 12.3 nM | – | 1.06
E13 [8], 37 nM | – | 0.964
E13 [8], 111.1 nM | – | 1
E13 [8], 333.3 nM | – | 1.17
E13 [8], 1000 nM | – | 1.02
E13 [8], 3000 nM | – | 1.21
E21 [2], 4.1 nM | 0.612 | –
E21 [2], 12.3 nM | 0.186 | –
E21 [2], 37 nM | 0.499 | –
E21 [2], 111.1 nM | 0.624 | –
E21 [2], 333.3 nM | 0.464 | –
E21 [2], 1000 nM | 0.432 | –
E21 [2], 3000 nM | 0.539 | –
E21 [9], 4.1 nM | – | 0.915
E21 [9], 12.3 nM | – | 1.07
E21 [9], 37 nM | – | 1
E21 [9], 111.1 nM | – | 1.07
E21 [9], 333.3 nM | – | 1.01
E21 [9], 1000 nM | – | 1.07
E21 [9], 3000 nM | – | 0.972
E28 [3], 4.1 nM | 0.522 | –
E28 [3], 12.3 nM | 0.383 | –
E28 [3], 37 nM | 0.987 | –
E28 [3], 111.1 nM | 0.572 | –
E28 [3], 333.3 nM | 0.378 | –
E28 [3], 1000 nM | 0.745 | –
E28 [3], 3000 nM | 0.583 | –
E28 [10], 4.1 nM | – | 0.971
E28 [10], 12.3 nM | – | 1.05
E28 [10], 37 nM | – | 1.11
E28 [10], 111.1 nM | – | 0.954
E28 [10], 333.3 nM | – | 1.01
E28 [10], 1000 nM | – | 1.31
E28 [10], 3000 nM | – | 0.925
E31 [4], 4.1 nM | 0.277 | –
E31 [4], 12.3 nM | 0.448 | –
E31 [4], 37 nM | 0.256 | –
E31 [4], 111.1 nM | 0.408 | –
E31 [4], 333.3 nM | 0.439 | –
E31 [4], 1000 nM | 0.452 | –
E31 [4], 3000 nM | 0.335 | –
E31 [11], 4.1 nM | – | 1.13
E31 [11], 12.3 nM | – | 0.968
E31 [11], 37 nM | – | 0.961
E31 [11], 111.1 nM | – | 0.969
E31 [11], 333.3 nM | – | 1.03
E31 [11], 1000 nM | – | 1.14
E31 [11], 3000 nM | – | 0.872
E34 [5], 4.1 nM | 1.01 | –
E34 [5], 12.3 nM | 0.395 | –
E34 [5], 37 nM | 0.531 | –
E34 [5], 111.1 nM | 0.763 | –
E34 [5], 333.3 nM | 0.579 | –
E34 [5], 1000 nM | 0.38 | –
E34 [5], 3000 nM | 0.822 | –
E34 [12], 4.1 nM | – | 1.15
E34 [12], 12.3 nM | – | 1.03
E34 [12], 37 nM | – | 0.979
E34 [12], 111.1 nM | – | 1.12
E34 [12], 333.3 nM | – | 0.974
E34 [12], 1000 nM | – | 1.04
E34 [12], 3000 nM | – | 0.925
E57 [7], 4.1 nM | 0.364 | –
E57 [7], 12.3 nM | 0.555 | –
E57 [7], 37 nM | 0.5 | –
E57 [7], 111.1 nM | 0.927 | –
E57 [7], 333.3 nM | 0.637 | –
E57 [7], 1000 nM | 0.333 | –
E57 [7], 3000 nM | 0.748 | –
E57 [14], 4.1 nM | – | 1.03
E57 [14], 12.3 nM | – | 1.03
E57 [14], 37 nM | – | 0.994
E57 [14], 111.1 nM | – | 0.948
E57 [14], 333.3 nM | – | 1.01
E57 [14], 1000 nM | – | 1.03
E57 [14], 3000 nM | – | 0.903
FT3469 [6], 4.1 nM | 0.931 | –
FT3469 [6], 12.3 nM | 0.68 | –
FT3469 [6], 37 nM | 0.676 | –
FT3469 [6], 111.1 nM | 0.509 | –
FT3469 [6], 333.3 nM | 0.439 | –
FT3469 [6], 1000 nM | 1.06 | –
FT3469 [6], 3000 nM | 0.675 | –
FT3469 [13], 4.1 nM | – | 1.16
FT3469 [13], 12.3 nM | – | 1.03
FT3469 [13], 37 nM | – | 1.12
FT3469 [13], 111.1 nM | – | 1.01
FT3469 [13], 333.3 nM | – | 1.05
FT3469 [13], 1000 nM | – | 1.1
FT3469 [13], 3000 nM | – | 0.939
